Assay results taken from paper PMC9014845 (Clinical cancer research : an official journal of the …, 2019).

System: patients with advanced solid tumors harboring FGFR1–3 gene alterations
Experiment: Phase I dose-escalation: safety/tolerability
Assay type: in vivo, human

Debio 1347
TEAE: Back pain (150 mg (n=3), all grades): 1 (33) Number (%) of patients
TEAE: Blurred vision (150 mg (n=3), all grades): 0 Number (%) of patients
TEAE: Constipation (150 mg (n=3), all grades): 1 (33) Number (%) of patients
TEAE: Creatinine increased (in blood) (150 mg (n=3), all grades): 0 Number (%) of patients
TEAE: Decreased appetite (150 mg (n=3), all grades): 1 (33) Number (%) of patients
TEAE: Diarrhea (150 mg (n=3), all grades): 1 (33) Number (%) of patients
TEAE: Dry eye (150 mg (n=3), all grades): 1 (33) Number (%) of patients
TEAE: Dry mouth (150 mg (n=3), all grades): 1 (33) Number (%) of patients
TEAE: Dry skin (150 mg (n=3), all grades): 1 (33) Number (%) of patients
TEAE: Dysgeusia (150 mg (n=3), all grades): 2 (67) Number (%) of patients
TEAE: Dyspnea (150 mg (n=3), all grades): 1 (33) Number (%) of patients
TEAE: Edema peripheral (150 mg (n=3), all grades): 1 (33) Number (%) of patients
TEAE: Fatigue (150 mg (n=3), all grades): 0 Number (%) of patients
TEAE: Hyperphosphatemia (150 mg (n=3), all grades): 3 (100) Number (%) of patients
TEAE: Hypertension (150 mg (n=3), all grades): 0 Number (%) of patients
TEAE: Hypokalemia (150 mg (n=3), all grades): 0 Number (%) of patients
TEAE: Hypomagnesemia (150 mg (n=3), all grades): 0 Number (%) of patients
TEAE: Mucosal inflammation (150 mg (n=3), all grades): 1 (33) Number (%) of patients
TEAE: Myalgia (150 mg (n=3), all grades): 0 Number (%) of patients
TEAE: Nail changes (150 mg (n=3), all grades): 3 (100) Number (%) of patients
TEAE: Nausea (150 mg (n=3), all grades): 2 (67) Number (%) of patients
TEAE: Stomatitis (150 mg (n=3), all grades): 1 (33) Number (%) of patients
TEAE: Vomiting (150 mg (n=3), all grades): 1 (33) Number (%) of patients
Patients requiring dose reduction (60 and 80 mg): 20%
Any TEAE (all doses (n=58), all grades): 58 (100%) Number (%) of patients
Any TEAE leading to discontinuation (all doses (n=58), all grades): 7 (12.1) Number (%) of patients
Any TEAE leading to dose reduction (all doses (n=58), all grades): 13 (22.4) Number (%) of patients
Any TEAE leading to treatment interruption (all doses (n=58), all grades): 26 (44.8) Number (%) of patients
Serious TEAE (all doses (n=58), all grades): 20 (34.5) Number (%) of patients
TEAE: ALT increased (all doses (n=58), all grades): 6 (10) Number (%) of patients
TEAE: AST increased (all doses (n=58), all grades): 6 (10) Number (%) of patients
TEAE: Abdominal pain (all doses (n=58), all grades): 12 (21) Number (%) of patients
TEAE: Alopecia (all doses (n=58), all grades): 11 (19) Number (%) of patients
TEAE: Anemia (all doses (n=58), all grades): 12 (21) Number (%) of patients
TEAE: Back pain (all doses (n=58), all grades): 9 (16) Number (%) of patients
TEAE: Blurred vision (all doses (n=58), all grades): 6 (10) Number (%) of patients
TEAE: Constipation (all doses (n=58), all grades): 19 (33) Number (%) of patients
TEAE: Creatinine increased (in blood) (all doses (n=58), all grades): 8 (14) Number (%) of patients
TEAE: Decreased appetite (all doses (n=58), all grades): 18 (31) Number (%) of patients
TEAE: Diarrhea (all doses (n=58), all grades): 24 (41) Number (%) of patients
TEAE: Dry eye (all doses (n=58), all grades): 8 (14) Number (%) of patients
TEAE: Dry mouth (all doses (n=58), all grades): 15 (26) Number (%) of patients
TEAE: Dry skin (all doses (n=58), all grades): 10 (17) Number (%) of patients
TEAE: Dysgeusia (all doses (n=58), all grades): 10 (17) Number (%) of patients
TEAE: Dyspnea (all doses (n=58), all grades): 12 (21) Number (%) of patients
TEAE: Edema peripheral (all doses (n=58), all grades): 8 (14) Number (%) of patients
TEAE: Fatigue (all doses (n=58), all grades): 22 (38) Number (%) of patients
TEAE: Hyperphosphatemia (all doses (n=58), all grades): 44 (76) Number (%) of patients
TEAE: Hypertension (all doses (n=58), all grades): 7 (12) Number (%) of patients
TEAE: Hypokalemia (all doses (n=58), all grades): 8 (14) Number (%) of patients
TEAE: Hypomagnesemia (all doses (n=58), all grades): 7 (12) Number (%) of patients
TEAE: Mucosal inflammation (all doses (n=58), all grades): 8 (14) Number (%) of patients
TEAE: Myalgia (all doses (n=58), all grades): 12 (21) Number (%) of patients
TEAE: Nail changes (all doses (n=58), all grades): 17 (29) Number (%) of patients
TEAE: Nausea (all doses (n=58), all grades): 23 (40) Number (%) of patients
TEAE: Stomatitis (all doses (n=58), all grades): 12 (21) Number (%) of patients
TEAE: Vomiting (all doses (n=58), all grades): 11 (19) Number (%) of patients
Any TEAE (all doses (n=58), grade ≥3): 37 (64%) Number (%) of patients
TEAE: ALT increased (all doses (n=58), grade ≥3): 2 (3) Number (%) of patients
TEAE: AST increased (all doses (n=58), grade ≥3): 1 (2) Number (%) of patients
TEAE: Abdominal pain (all doses (n=58), grade ≥3): 1 (2) Number (%) of patients
TEAE: Alopecia (all doses (n=58), grade ≥3): 0 Number (%) of patients
TEAE: Anemia (all doses (n=58), grade ≥3): 7 (12) Number (%) of patients
TEAE: Back pain (all doses (n=58), grade ≥3): 1 (2) Number (%) of patients
TEAE: Blurred vision (all doses (n=58), grade ≥3): 0 Number (%) of patients
TEAE: Constipation (all doses (n=58), grade ≥3): 1 (2) Number (%) of patients
TEAE: Creatinine increased (in blood) (all doses (n=58), grade ≥3): 0 Number (%) of patients
TEAE: Decreased appetite (all doses (n=58), grade ≥3): 1 (2) Number (%) of patients
TEAE: Diarrhea (all doses (n=58), grade ≥3): 2 (3) Number (%) of patients
TEAE: Dry eye (all doses (n=58), grade ≥3): 0 Number (%) of patients
TEAE: Dry mouth (all doses (n=58), grade ≥3): 0 Number (%) of patients
TEAE: Dry skin (all doses (n=58), grade ≥3): 0 Number (%) of patients
TEAE: Dysgeusia (all doses (n=58), grade ≥3): 0 Number (%) of patients
TEAE: Dyspnea (all doses (n=58), grade ≥3): 3 (5) Number (%) of patients
TEAE: Edema peripheral (all doses (n=58), grade ≥3): 0 Number (%) of patients
TEAE: Fatigue (all doses (n=58), grade ≥3): 0 Number (%) of patients
TEAE: Hyperphosphatemia (all doses (n=58), grade ≥3): 12 (21) Number (%) of patients
TEAE: Hypertension (all doses (n=58), grade ≥3): 0 Number (%) of patients
TEAE: Hypokalemia (all doses (n=58), grade ≥3): 1 (2) Number (%) of patients
TEAE: Hypomagnesemia (all doses (n=58), grade ≥3): 0 Number (%) of patients
TEAE: Mucosal inflammation (all doses (n=58), grade ≥3): 1 (2) Number (%) of patients
TEAE: Myalgia (all doses (n=58), grade ≥3): 0 Number (%) of patients
TEAE: Nail changes (all doses (n=58), grade ≥3): 0 Number (%) of patients
TEAE: Nausea (all doses (n=58), grade ≥3): 0 Number (%) of patients
TEAE: Stomatitis (all doses (n=58), grade ≥3): 2 (3) Number (%) of patients
TEAE: Vomiting (all doses (n=58), grade ≥3): 0 Number (%) of patients
Patients in whom adverse events required dose modifications (all doses, n=58): 52%
Patients requiring dose modifications due to AEs (all doses, n=58): 30 (52%) patients (%)
Patients with dose modifications due to asymptomatic hyperphosphatemia (all doses, n=58): 22%
Patients reporting blurred vision (at 30–150 mg, mainly grade 1): 6 patients
Recommended phase 2 dose (RP2D) (dose reduction to 60 mg/day in case of intolerable toxicity): 80 mg/daily
Maximum tolerated dose (doses up to 150 mg/day once daily, 3+3+3 design): not formally reached
Patients with DLTs (first 4 weeks, at three dose levels, 58 treated at 10 to 150 mg/day): Five
Number of DLTs (first 4 weeks, dry mouth/eyes, hyperamylasemia, hypercalcemia, hyperbilirubinemia, hyperphosphatemia, stomatitis): 6 DLTs
SAEs deemed possibly study drug related (DLTs) (hyperamylasemia (80 mg), stomatitis (110 mg)): two
Maximum severity of dermatological toxicity / nail changes (in vivo): ≤ 2 grade
Patients with QTc prolongations of grade 1 or 2 (in vivo): Three
Patients with nail changes requiring dose adjustment (in vivo): 3 patients
Drug-related deaths (n=58): no death was considered drug-related
Number of SAEs (n=58): 39 SAEs
Patients experiencing SAEs (n=58): 20 patients
Patients who died from disease progression (n=58): 21 patients
Patients with highest TEAE severity grade 1 (n=58): 4 (7%) patients (%)
Patients with highest TEAE severity grade 2 (n=58): 17 (29%) patients (%)
Patients with highest TEAE severity grade 3 (n=58): 28 (48%) patients (%)
Patients with highest TEAE severity grade 4 (n=58): 2 (3%) patients (%)
Patients with highest TEAE severity grade 5 (n=58): 7 (12%) patients (%)
Dose up to which tolerability was acceptable (oral once daily): up to 80 mg/day
Lowest dose at which serum phosphate increases occurred (typically between 1st and 3rd week of dosing): 20 mg
Dose reduction required (up to 40 mg): no dose reduction was required
